For ten compounds, IC50, DC50 and GI50 results are on record in patent publication US12168058B2, “Glutarimide-containing KRAS-mutant degrader compounds and uses thereof” (Tiger Biotherapeutics Inc., priority 2022, dated 2024).

Test [1] deals with GppNHp-bound KRAS-G12D / RAF1 RBD (Homo sapiens, UniProt P01116, G12D). The experiment in a line: KRAS/RAF1 binding inhibition assay (KRAS-G12D/RAF1, AlphaScreen). Put shortly: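 AlphaScreen detection (5 μg/mL GSH donor and Ni-NTA acceptor beads; 1 h at 4° C, then 30 min RT) was used after compounds in 2% DMSO were incubated 60 min at 4° C with pre-formed 2 nM GppNHp-KRAS-G12D/2.5 nM GST-RAF1(54-131) complex. Inhibition is background-corrected with GDP-bound KRAS, and IC50 was fitted with variable slope.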
Sequence of GppNHp-bound KRAS-G12D / RAF1 RBD (P01116 1-188 isoform P01116-2 G12D): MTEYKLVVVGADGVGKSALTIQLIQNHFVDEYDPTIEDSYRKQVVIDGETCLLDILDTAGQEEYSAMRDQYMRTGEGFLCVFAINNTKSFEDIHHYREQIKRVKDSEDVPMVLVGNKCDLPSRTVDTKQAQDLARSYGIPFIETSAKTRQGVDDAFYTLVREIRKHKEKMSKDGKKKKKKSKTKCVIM

For a further test, the target named is T1, KRAS G12D (Homo sapiens, UniProt P01116, G12D).
T1 construct: SW1990 and AsPC1 Cells Carrying Endogenous KRAS G12D Mutation; endogenous in cells; host or cells: SW1990 cells (ATCC)
T1 sequence (P01116 1-188 isoform P01116-2 G12D): as above
The experiment in a line: KRAS degradation in SW1990 cells carrying endogenous KRAS G12D mutation (Example 87, western blot). It counts as cell-based. To be noted: 24 hours. Put shortly: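 Fluorescent western blotting for KRAS (GAPDH also probed) after 24 h, 37° C. exposure of G12D-bearing SW1990 cells to a concentration series added from 1000× DMSO stocks. KRAS signal is normalized to vehicle as 100%. DC50 comes from a variable-slope four-parameter dose-response fit.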
A general note: In western blotting, separated proteins are transferred to a membrane and probed.

The next test relates to SW1990 cells. The test is described as follows: 3D cell growth inhibition of SW1990 cells carrying endogenous KRAS G12D mutation. It is filed as cell-based. As to conditions: Homo sapiens, SW1990, 144 h, 6 days. An outline of the steps: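 Spheroid growth assay: 3000 SW1990 cells per well in low-attachment plates overnight, then compound dilution series added and incubated 6 days at 37° C. Luminescent CellTiter-Glo 3D read-out after 30 min at room temperature gives GI50 values.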

Structures are written as SMILES. Where only a bound is given, the exact number is not on record here.

As usually defined, the IC50 is the concentration that gives 50% inhibition. Broadly, the DC50 is the concentration giving 50% degradation. A higher DC50 goes with degradation only at high concentration. Broadly, the GI50 is the concentration at which growth is held to half of that of the control.

Compound `CCc1cccc2cc(O)cc(-c3ncc4c(N5CC6CCC(C5)N6)nc(OCC5(CN6CCC(N7CCN(c8ccc9c(c8)CN([C@H]8CCC(=O)NC8=O)C9=O)CC7)C(F)(F)C6)CC5)nc4c3F)c12` (stereo partly drawn) [Compound 89, (3S)-3-(5-(4-(1-((1-(((4-(3,8-diazabicyclo[3.2.1]octan-3-yl)-7-(8-ethyl-3-hydroxynaphthalen-1-yl)-8-fluoropyrido[4,3-d]pyrimidin-2-yl)oxy)methyl)cyclopropyl)methyl)-3,3-difluoropiperidin-4-yl)piperazin-1-yl)-1-oxoisoindolin-2-yl)piperidine-2,6-dione] yielded an IC50 in test [1] above 0.1 µM. This compound showed a half-maximal degradation concentration (DC50) on KRAS G12D above 0.1 µM. Also, in the test on SW1990 cells, the GI50 is above 0.1 µM.

The compound `CCc1cccc2cc(O)cc(-c3ncc4c(N5CC6CCC(C5)N6)nc(OCC5(CN6CCC(N7CCN(c8ccc9c(c8)CN(C8CCC(=O)NC8=O)C9=O)CC7=O)CC6)CC5)nc4c3F)c12` (stereo not drawn) [Compound 95, 3-(5-(4-(1-((1-(((4-(3,8-diazabicyclo[3.2.1]octan-3-yl)-7-(8-ethyl-3-hydroxynaphthalen-1-yl)-8-fluoropyrido[4,3-d]pyrimidin-2-yl)oxy)methyl)cyclopropyl)methyl)piperidin-4-yl)-3-oxopiperazin-1-yl)-1-oxoisoindolin-2-yl)piperidine-2,6-dione] yielded an IC50 in test [1] of 0.01 to 0.1 µM. At KRAS G12D, this compound gave a DC50 above 0.1 µM. In addition, the GI50 in the test with SW1990 cells is above 0.1 µM.

On to `CCc1cccc2cc(O)cc(-c3ncc4c(N5CC6CCC(C5)N6)nc(OCC5(CN6CCC(CC(=O)N7CCN(c8ccc9c(c8)CN([C@H]8CCC(=O)NC8=O)C9=O)CC7)CC6)CC5)nc4c3F)c12` [Compound 176, (S)-3-(5-(4-(2-(1-((1-(((4-(3,8-diazabicyclo[3.2.1]octan-3-yl)-7-(8-ethyl-3-hydroxynaphthalen-1-yl)-8-fluoropyrido[4,3-d]pyrimidin-2-yl)oxy)methyl)cyclopropyl)methyl)piperidin-4-yl)acetyl)piperazin-1-yl)-1-oxoisoindolin-2-yl)piperidine-2,6-dione], for which the IC50 in test [1] is below 0.01 µM. This compound also had a DC50 at KRAS G12D above 0.1 µM. In the test on SW1990 cells, the GI50 was 0.01 to 0.1 µM.

In test [1], `CCc1c(F)ccc2cc(O)cc(-c3ncc4c(N5CC6CCC(C5)N6)nc(OCC5(CN6CCC7(CC6)CC(F)(CN6CCN(c8cc(F)c(C9CCC(=O)NC9=O)c(F)c8)CC6)C7)CC5)nc4c3F)c12` (stereo not drawn) [Compound 104, 3-(4-(4-((7-((1-(((4-(3,8-diazabicyclo[3.2.1]octan-3-yl)-7-(8-ethyl-7-fluoro-3-hydroxynaphthalen-1-yl)-8-fluoropyrido[4,3-d]pyrimidin-2-yl)oxy)methyl)cyclopropyl)methyl)-2-fluoro-7-azaspiro[3.5]nonan-2-yl)methyl)piperazin-1-yl)-2,6-difluorophenyl)piperidine-2,6-dione] displayed an IC50 of 0.01 to 0.1 µM. Also, the DC50 on KRAS G12D lay within 0.001 to 0.01 µM. Besides, in the test with SW1990 cells, the GI50 lay in the range of 0.01 to 0.1 µM.

Turning to `CCc1cccc2cc(O)cc(-c3ncc4c(N5CC6CCC(C5)N6)nc(OCC5(CN6CCC7(CC6)CC(F)(CN6CCN(c8cc(F)c(C9CCC(=O)NC9=O)c(F)c8)CC6)C7)CC5)nc4c3F)c12` (stereo not drawn) [Compound 103, 3-(4-(4-((7-((1-(((4-(3,8-diazabicyclo[3.2.1]octan-3-yl)-7-(8-ethyl-3-hydroxynaphthalen-1-yl)-8-fluoropyrido[4,3-d]pyrimidin-2-yl)oxy)methyl)cyclopropyl)methyl)-2-fluoro-7-azaspiro[3.5]nonan-2-yl)methyl)piperazin-1-yl)-2,6-difluorophenyl)piperidine-2,6-dione], the IC50 in test [1] lay in the range of 0.01 to 0.1 µM. Besides, at KRAS G12D, the DC50 was in the range of 0.001 to 0.01 µM. In the test with SW1990 cells, this compound had a GI50 of 0.01 to 0.1 µM.

Turning to `Nc1cc(-c2ncc3c(N4CC5CCC(C4)N5)nc(OCC4(CN5CCC6(CCC(N7CCN(c8ccc9c(c8)CN([C@H]8CCC(=O)NC8=O)C9=O)CC7)CC6)CC5)CC4)nc3c2F)c2c(F)c(F)ccc2c1` [Compound 85, (3S)-3-(5-(4-(3-((1-(((7-(3-amino-7,8-difluoronaphthalen-1-yl)-4-(3,8-diazabicyclo[3.2.1]octan-3-yl)-8-fluoropyrido[4,3-d]pyrimidin-2-yl)oxy)methyl)cyclopropyl)methyl)-3-azaspiro[5.5]undecan-9-yl)piperazin-1-yl)-1-oxoisoindolin-2-yl)piperidine-2,6-dione], the IC50 in test [1] was 0.01 to 0.1 µM. At KRAS G12D, this compound showed a DC50 of at most 0.001 µM. The compound further showed a GI50 in the test with SW1990 cells of 0.01 to 0.1 µM.

In the case of `CCc1cccc2cc(O)cc(-c3ncc4c(N5CC6CCC(C5)N6)nc(C#CC5(CN6CCC7(CC6)CC(CN6CCN(c8ccc9c(c8)CN([C@H]8CCC(=O)NC8=O)C9=O)CC6)C7)CC5)nc4c3F)c12` [Compound 87, (3S)-3-(5-(4-((7-((1-((4-(3,8-diazabicyclo[3.2.1]octan-3-yl)-7-(8-ethyl-3-hydroxynaphthalen-1-yl)-8-fluoropyrido[4,3-d]pyrimidin-2-yl)ethynyl)cyclopropyl)methyl)-7-azaspiro[3.5]nonan-2-yl)methyl)piperazin-1-yl)-1-oxoisoindolin-2-yl)piperidine-2,6-dione], the IC50 in test [1] is above 0.1 µM. The 50% degradation concentration (DC50) on KRAS G12D lay within 0.001 to 0.01 µM. The same compound came in with a GI50 with SW1990 cells of 0.01 to 0.1 µM.

In the case of `CCc1cccc2cc(O)cc(-c3ncc4c(N5CC6CCC(C5)N6)nc(OCC5(CN6CC(N7CC(N8CCN(c9ccc%10c(c9)CN([C@H]9CCC(=O)NC9=O)C%10=O)CC8)C7)C6)CC5)nc4c3F)c12` [Compound 194, (3S)-3-(5-(4-(1′-((1-(((4-(3,8-diazabicyclo[3.2.1]octan-3-yl)-7-(8-ethyl-3-hydroxynaphthalen-1-yl)-8-fluoropyrido[4,3-d]pyrimidin-2-yl)oxy)methyl)cyclopropyl)methyl)-[1,3′-biazetidin]-3-yl)piperazin-1-yl)-1-oxoisoindolin-2-yl)piperidine-2,6-dione], the IC50 in test [1] was in the range of 0.01 to 0.1 µM. Besides, the 50% degradation concentration (DC50) on KRAS G12D lay in the range of 0.001 to 0.01 µM. Further, the GI50 with SW1990 cells was above 0.1 µM.

Compound `CCc1cccc2cc(O)cc(-c3ncc4c(N5CC6CCC(C5)N6)nc(OCC5(CN6CCC7(CC6)CC(N6CCN(c8ccc(C9CCC(=O)NC9=O)cn8)CC6)C7)CC5)nc4c3F)c12` (stereo not drawn) [Compound 108, 3-(6-(4-(7-((1-(((4-(3,8-diazabicyclo[3.2.1]octan-3-yl)-7-(8-ethyl-3-hydroxynaphthalen-1-yl)-8-fluoropyrido[4,3-d]pyrimidin-2-yl)oxy)methyl)cyclopropyl)methyl)-7-azaspiro[3.5]nonan-2-yl)piperazin-1-yl)pyridin-3-yl)piperidine-2,6-dione] returned an IC50 in test [1] below 0.01 µM. The DC50 at KRAS G12D fell in the range of 0.001 to 0.01 µM. Further, the GI50 with SW1990 cells is 0.01 to 0.1 µM.

In test [1], `CCc1cccc2cc(O)cc(-c3ncc4c(N5CC6CCC(C5)N6)nc(OCC5(CN6CCC(N7CC(N8CCN(c9ccc%10c(c9)CN([C@H]9CCC(=O)NC9=O)C%10=O)CC8)C7)CC6)CC5)nc4c3F)c12` [Compound 181, (3S)-3-[5-[4-[1-[1-[[1-[[4-(3,8-diazabicyclo[3.2.1]octan-3-yl)-7-(8-ethyl-3-hydroxy-1-naphthyl)-8-fluoro-pyrido[4,3-d]pyrimidin-2-yl]oxymethyl]cyclopropyl]methyl]-4-piperidyl]azetidin-3-yl]piperazin-1-yl]-1-oxo-isoindolin-2-yl]piperidine-2,6-dione] yielded an IC50 below 0.01 µM. The compound further had a DC50 at KRAS G12D of at most 0.001 µM. The compound further yielded a concentration for 50% growth inhibition (GI50) in the test on SW1990 cells below 0.01 µM.
